Experimental data from patent US20220338477A1, “MYCOBACTERIUM BACTERICIDE” (SANKEI CO., LTD., priority 2019, published 2022).

Legend:
M. intracellulare = assay: Test for studying disinfecting effect of chlorous acid aqueous solution and sodium hypochlorite on M. intracellulare; type: cell-based, Mycobacterium intracellulare; settings: for free chlorine concentration (as Cl) at which a disinfecting effect (reducing the bacteria count 4 log or greater) is exhibited: contact time 1 min
Description: (§1) As a measuring method of free chlorine (as Cl), a buffer and a DPD indicator are added to a sample and a wavelength of 510 nm is measured with an absorption spectrophotometer, and for measurement of free chlorine (as Cl) in the presence of an organic matter, measurement is taken at a wavelength of 655 nm using a TMB reagent to find the concentration from the measurement values. Further, a method of conducting a test for studying the disinfecting effect prepares free chlorine (as Cl) of a test agent by a DPD method, contacts each agent with an organic matter-containing bacterial solution, neutralizes the solution with sodium thiosulfate after a certain period of time has passed, and checks the viable bacteria count of the neutral solution.
For the “chlorous acid aqueous solution formulation manufactured with chlorous acid aqueous solution” prepared based on the preparation method described above, the concentration of “chlorous acid aqueous solution” was measured based on the “Quantification method of chlorous acid aqueous solution” described above, and buffer prepared to achieve the free chlorine concentration described in each Example (phosphate buffer comprising dipotassium hydrogen phosphate and potassium dihydrogen phosphate) was used to prepare the chlorous acid aqueous solution of each Example.
The disinfecting effects of chlorous acid aqueous solutions and sodium hypochlorite on M. intracellulare were studied in the absence of an organic matter and in the presence of an organic matter, i.e., 0.5% bovine serum albumin (hereinafter, BSA) (FIG. 1). If an effect of reducing the bacteria count is 4 log or greater, the agent is considered as having a disinfecting effect.

[1] = test system: chromosomal DNA of M. intracellulare; assay: Pulsed-field gel electrophoresis of chromosomal DNA after disinfection of M. intracellulare; type: cell-based, Mycobacterium intracellulare; settings: compared with water
Text: In order to study the disinfection mechanism of chlorous acid aqueous solutions, with the understanding that a chlorous acid aqueous solution is unlikely to disinfect by acting on the bacterial surface in view of the results of SEM, chromosomal DNA was extracted from bacteria after disinfection, and the state of the chromosomal DNA was examined through pulsed-field gel electrophoresis in order to study the effect of a chlorous acid aqueous solution on chromosomal DNA of bacteria.

[2] = test system: other mycobacteria (JCM135429, JCM135430, JCM135431, JCM135432, JCM6387, JCM6390, JCM13569); assay: Disinfecting effect on other mycobacteria; type: cell-based
Description: as §1
Additional studies were conducted to find whether a disinfecting effect is observed on other mycobacteria. In the absence of organic matters, an effect of chlorous acid aqueous solutions was also observed on other mycobacteria at free chlorine of 50 ppm or greater, whereas an effect was not observed from sodium hypochlorite at 200 ppm (FIG. 7). The same results as the results for M. intracellulare were obtained.

## OCl [sodium hypochlorite]
M. intracellulare; absence and presence of organic matter (0.5% BSA)
  disinfecting effect (FIG. 1): not found
M. intracellulare; absence of an organic matter
  free chlorine concentration (as Cl) at which a disinfecting effect (reducing the bacteria count 4 log or greater) is exhibited: > 200 ppm
M. intracellulare; presence of an organic matter (0.5% BSA)
  free chlorine concentration (as Cl) at which a disinfecting effect (reducing the bacteria count 4 log or greater) is exhibited: > 1000 ppm
[1]
  state of chromosomal DNA band in pulsed-field gel electrophoresis: a band is formed at the same position as water
[2]; absence of organic matters (FIG. 7)
  free chlorine at which a disinfecting effect was observed: > 200 ppm
[2]; presence of 0.5% BSA (FIG. 8)
  free chlorine at which a disinfecting effect was observed: > 1000 ppm
